Source: patent US20240261297A1, “ANTI-CDK INHIBITORS FOR CANCER TREATMENT” (St. John's Cancer Institute, priority 2021, published 2024)
Read-outs that look alike come from different tables or passages of the source.

What was measured:
CDK2/cyclin E [1] = target: T1, CDK2/cyclin E (Homo sapiens, UniProt P24941); test: Cellular thermal shift assay (CETSA), isothermal dose response; assay type: binding; parameters: endogenous in cells; details: cell lysate, from 300 nM, 1 hour, 58° C. 20 min, Western blot
Procedure: (§1) Compound 1-3 efficacy was assessed in several in vitro assays. A nanoBrET assay was used to measure intracellular kinase activity of I-3 with CDK2, CDK1, CDK7 and CDK9. Briefly, HEK293 cells were transfected with CDK2, CDK1, CDK7 and CDK9. The transfected cells were treated in duplicate with test compound I-3 (starting at 10 μM, 10-dose with 3-fold dilution) and target engagement was measured by NanoBRET assay (FIG. 2A and Table 4). Cellular thermal shift assay (CETSA) was also performed to evaluate drug target interaction in the cells. The CETSA method is built upon two concepts: cellular thermal shift and isothermal dose-response. The cellular thermal shift assay is based on the established fact that proteins that are complexed to a ligand become more resistant to heat induced unfolding. Isothermal dose response is used to determine a compound's potency in binding the target by measuring the thermal stability of the target treated with various concentrations of compound at a fixed temperature. Briefly, cell lysate was treated with I-3 (starting at 300 nM, 10-dose with 3-fold dilution) and incubated for 1 hour and cell lysates were then subjected to predetermined thermal aggregation temperature (58° C.) for another 20 min. Western blot was performed to determine the levels of target protein bound to I-3 (FIG. 2B).

MDA-MB-231 = test: Cell viability in breast cancer cell lines; assay type: cell-based; details: Homo sapiens; MDA-MB-231 (Mesenchymal-like), 72 hours; read-out: CTG and Alamar Blue Assay IC50
Text: (§2) Tables 5 and 6 show assessment of in vitro efficacy of I-3 in a panel of breast cancer cell lines.

BT-549 = test: Cell viability in breast cancer cell lines; assay type: cell-based; details: Homo sapiens; BT-549 (Mesenchymal), 72 hours; read-out: CTG and Alamar Blue Assay IC50
Text: as §2

MDA-MB-468 = test: Cell viability in breast cancer cell lines; assay type: cell-based; details: Homo sapiens
Text: as §2

T47D = test: Cell viability in breast cancer cell lines; assay type: cell-based; details: Homo sapiens; T47D (Ductal carcinoma), 72 hours; read-out: CTG and Alamar Blue Assay IC50
Text: as §2

MCF-10A = test: Cell viability in breast cell lines; assay type: cell-based; details: Homo sapiens, 72 hours
Text: as §2

CKD9/Cyclin H = CKD9/Cyclin H (Homo sapiens, UniProt P50750); test: Biochemical profile against CDKs and binding partners (Table 3)
Chain of CKD9/Cyclin H (P50750 whole entry, canonical isoform): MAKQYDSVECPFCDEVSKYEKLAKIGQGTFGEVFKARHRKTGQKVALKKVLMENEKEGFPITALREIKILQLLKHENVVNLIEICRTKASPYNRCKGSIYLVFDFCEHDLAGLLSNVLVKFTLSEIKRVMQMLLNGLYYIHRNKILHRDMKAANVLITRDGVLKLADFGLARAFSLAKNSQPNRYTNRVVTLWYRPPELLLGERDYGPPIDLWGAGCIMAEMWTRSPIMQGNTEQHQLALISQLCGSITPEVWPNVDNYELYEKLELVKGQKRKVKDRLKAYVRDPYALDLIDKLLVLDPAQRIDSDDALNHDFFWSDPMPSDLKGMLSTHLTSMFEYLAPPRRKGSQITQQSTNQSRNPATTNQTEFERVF
Procedure: (§3) A series of test compounds were selected for initial screening against CDK isoforms. Protein kinase assays were performed with gold standard radioisotope-based assay formats to measuring enzyme activity remaining in presence and absence of inhibitor.

PLC/PRF/5 cells = test: Cell viability of HCC cells by CellTiter Glo assay; assay type: cell-based; details: Homo sapiens, 72 hours
Procedure: FIG. 5 is a graph showing cell viability of hepatocellular carcinoma (HCC) cell lines treated with I-3 for 72 hours, assessed by CellTiter Glo assay, with the control level of cells considered 100%.
I-3 was also tested for efficacy on hepatocellular carcinoma (HCC) cell lines. Cell viability was measured by CellTiter Glo assay (FIG. 5 and Table 8).

CDK5/p35 = CDK5/p35 (Homo sapiens, UniProt Q00535); test: Radioisotope-based protein kinase assay; assay type: biochemical; details: Table 2
Procedure: as §3
The activity of compound I-3 was compared to that of a panel of CDKs and their respective binding partners (Tables 2 and 3).

[2] = test system: caspase 3/7 in PLC/PRF/5 cells; test: Caspase Glo 3/7 activity assay in PLC/PRF/5 cells; assay type: cell-based
CDK2/Cyclin E1 = target: T2, CDK2/Cyclin E1 (Homo sapiens, UniProt P24941); test: NanoBRET target engagement intracellular kinase assay in HEK293 cells; assay type: cell-based; details: transfected HEK293 cells; 10-dose, 3-fold from 10 μM, duplicate
T2 construct: expressed in transfected cells; host or cells: HEK293
Procedure: as §1

CDK1/Cyclin B1 = target: T3, CDK1/Cyclin B1 (Homo sapiens, UniProt P06493); test: as above; assay type: cell-based; details: transfected HEK293 cells; 10-dose, 3-fold from 10 μM, duplicate
T3 construct: expressed in transfected cells; host or cells: HEK293
T3 sequence (P06493 whole entry): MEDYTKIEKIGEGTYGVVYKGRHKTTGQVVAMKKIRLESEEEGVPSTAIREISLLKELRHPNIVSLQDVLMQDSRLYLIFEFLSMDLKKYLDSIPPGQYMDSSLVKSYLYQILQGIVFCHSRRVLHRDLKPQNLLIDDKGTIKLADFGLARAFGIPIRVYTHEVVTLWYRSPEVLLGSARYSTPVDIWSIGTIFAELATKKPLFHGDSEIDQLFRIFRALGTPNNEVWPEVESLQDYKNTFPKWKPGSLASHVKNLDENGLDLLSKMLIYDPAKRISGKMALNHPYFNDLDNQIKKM
T3 sequence (P14635 whole entry partner): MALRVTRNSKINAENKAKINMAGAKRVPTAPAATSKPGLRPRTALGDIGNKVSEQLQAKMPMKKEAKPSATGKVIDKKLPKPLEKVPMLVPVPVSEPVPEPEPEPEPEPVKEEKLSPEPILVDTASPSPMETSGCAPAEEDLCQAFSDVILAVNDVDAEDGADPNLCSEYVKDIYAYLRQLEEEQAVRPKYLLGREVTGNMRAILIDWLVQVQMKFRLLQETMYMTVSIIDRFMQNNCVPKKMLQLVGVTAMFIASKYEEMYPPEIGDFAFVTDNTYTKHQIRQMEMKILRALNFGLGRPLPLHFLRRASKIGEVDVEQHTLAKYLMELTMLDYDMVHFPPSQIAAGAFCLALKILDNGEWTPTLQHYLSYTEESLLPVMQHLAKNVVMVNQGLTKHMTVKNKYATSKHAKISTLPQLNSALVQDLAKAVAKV
Procedure: as §1

CDK9/cyclin T1 [3] = target: T4, CDK9/cyclin T1 (Homo sapiens, UniProt P50750); test: as above; assay type: cell-based; details: transfected HEK293 cells; 10-dose, 3-fold from 10 μM, duplicate
T4 sequence (P50750 whole entry): as the sequence (P50750 whole entry, canonical isoform) above
T4 sequence (O60563 whole entry partner): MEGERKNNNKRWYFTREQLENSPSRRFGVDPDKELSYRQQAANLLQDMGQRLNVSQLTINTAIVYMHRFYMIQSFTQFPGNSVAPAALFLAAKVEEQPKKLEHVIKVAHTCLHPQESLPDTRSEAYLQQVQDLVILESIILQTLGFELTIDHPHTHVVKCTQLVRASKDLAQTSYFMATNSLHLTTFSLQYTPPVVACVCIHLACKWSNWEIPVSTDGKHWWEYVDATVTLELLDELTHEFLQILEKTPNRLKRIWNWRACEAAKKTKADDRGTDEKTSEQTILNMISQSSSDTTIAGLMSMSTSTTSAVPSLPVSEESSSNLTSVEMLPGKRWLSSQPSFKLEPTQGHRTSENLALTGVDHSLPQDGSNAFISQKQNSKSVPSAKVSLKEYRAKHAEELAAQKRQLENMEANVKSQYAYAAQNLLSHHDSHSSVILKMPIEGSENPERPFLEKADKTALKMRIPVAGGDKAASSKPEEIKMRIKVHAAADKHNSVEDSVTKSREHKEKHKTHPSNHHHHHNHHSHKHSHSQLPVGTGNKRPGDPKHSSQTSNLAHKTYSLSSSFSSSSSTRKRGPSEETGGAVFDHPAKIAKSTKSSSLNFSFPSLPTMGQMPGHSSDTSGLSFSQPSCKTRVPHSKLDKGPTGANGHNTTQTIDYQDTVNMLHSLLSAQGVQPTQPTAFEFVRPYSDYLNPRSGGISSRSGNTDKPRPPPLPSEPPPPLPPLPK
Procedure: as §1

CDK7/cyclin H [4] = target: T5, CDK7/cyclin H (Homo sapiens, UniProt P50613); test: as above; assay type: cell-based; details: transfected HEK293 cells; 10-dose, 3-fold from 10 μM, duplicate
T5 sequence (P50613 whole entry): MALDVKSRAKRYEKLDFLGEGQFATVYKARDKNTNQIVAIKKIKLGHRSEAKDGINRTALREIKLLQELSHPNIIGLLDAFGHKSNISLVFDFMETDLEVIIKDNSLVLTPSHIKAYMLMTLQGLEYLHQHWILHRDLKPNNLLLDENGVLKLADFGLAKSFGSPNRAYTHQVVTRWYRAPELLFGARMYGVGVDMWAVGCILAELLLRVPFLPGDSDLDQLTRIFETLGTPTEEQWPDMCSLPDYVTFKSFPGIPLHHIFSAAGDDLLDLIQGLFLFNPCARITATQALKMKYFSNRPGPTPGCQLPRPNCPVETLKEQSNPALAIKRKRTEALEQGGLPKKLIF
T5 sequence (P51946 whole entry partner): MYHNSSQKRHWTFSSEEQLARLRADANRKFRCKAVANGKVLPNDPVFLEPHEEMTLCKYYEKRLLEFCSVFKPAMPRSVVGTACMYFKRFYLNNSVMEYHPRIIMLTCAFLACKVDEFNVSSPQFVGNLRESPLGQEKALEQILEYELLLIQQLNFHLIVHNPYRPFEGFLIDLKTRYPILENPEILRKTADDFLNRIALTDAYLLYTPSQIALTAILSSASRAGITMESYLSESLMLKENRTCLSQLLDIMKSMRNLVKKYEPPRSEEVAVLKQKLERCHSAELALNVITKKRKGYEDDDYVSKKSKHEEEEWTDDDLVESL
T5 sequence (P51948 whole entry partner): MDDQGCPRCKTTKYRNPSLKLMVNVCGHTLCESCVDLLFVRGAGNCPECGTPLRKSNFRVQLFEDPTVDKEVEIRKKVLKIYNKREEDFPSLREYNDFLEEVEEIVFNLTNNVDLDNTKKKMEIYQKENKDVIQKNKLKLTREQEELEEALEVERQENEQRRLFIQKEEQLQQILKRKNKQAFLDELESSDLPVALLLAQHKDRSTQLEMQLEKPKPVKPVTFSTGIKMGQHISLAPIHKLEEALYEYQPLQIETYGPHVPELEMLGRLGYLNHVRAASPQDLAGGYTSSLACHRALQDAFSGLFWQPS
Procedure: as §1

CDK4/cyclin D1 = CDK4/cyclin D1 (Homo sapiens, UniProt P11802); test: Radioisotope-based protein kinase assay; assay type: biochemical; details: 10 μM ATP, 3-fold dilution from 10 μM
Chain of CDK4/cyclin D1 (P11802 whole entry): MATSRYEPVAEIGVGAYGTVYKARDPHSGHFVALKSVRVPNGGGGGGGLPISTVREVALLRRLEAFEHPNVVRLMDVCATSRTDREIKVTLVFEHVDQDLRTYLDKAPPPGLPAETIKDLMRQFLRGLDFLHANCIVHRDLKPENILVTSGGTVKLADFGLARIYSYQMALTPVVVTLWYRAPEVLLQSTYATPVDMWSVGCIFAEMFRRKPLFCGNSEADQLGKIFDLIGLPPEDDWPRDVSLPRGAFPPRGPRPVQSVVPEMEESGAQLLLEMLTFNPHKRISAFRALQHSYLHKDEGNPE
Chain of CDK4/cyclin D1 (P24385 whole entry partner): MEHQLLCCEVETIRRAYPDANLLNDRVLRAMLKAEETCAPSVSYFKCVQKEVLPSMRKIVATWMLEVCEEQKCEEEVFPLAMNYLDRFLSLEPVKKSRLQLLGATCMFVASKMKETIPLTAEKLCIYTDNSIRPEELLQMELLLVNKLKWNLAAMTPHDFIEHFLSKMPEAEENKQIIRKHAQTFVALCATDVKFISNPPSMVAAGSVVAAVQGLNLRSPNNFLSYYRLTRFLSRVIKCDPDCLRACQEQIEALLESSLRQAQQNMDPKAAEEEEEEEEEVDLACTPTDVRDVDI
Procedure: as §3

CDK2/cyclin A = CDK2/cyclin A (Homo sapiens, UniProt P24941); test: Radioisotope-based protein kinase assay; assay type: biochemical; details: 10 μM ATP, 3-fold dilution from 10 μM
Procedure: as §3

CDK1/cyclin A = CDK1/cyclin A (Homo sapiens, UniProt P06493); test: Radioisotope-based protein kinase assay; assay type: biochemical; details: 10 μM ATP, 3-fold dilution from 10 μM
Procedure: as §3

CDK2/cyclin E [5] = target: T1, CDK2/cyclin E; test: Radioisotope-based protein kinase assay; assay type: biochemical; details: 10 μM ATP, 3-fold dilution from 10 μM
Procedure: as §3

CDK9/cyclin T1 [6] = target: T4, CDK9/cyclin T1; test: Radioisotope-based protein kinase assay; assay type: biochemical; details: 10 μM ATP, 3-fold dilution from 10 μM
Procedure: as §3

CDK5/p25 = CDK5/p25 (Homo sapiens, UniProt Q00535); test: Radioisotope-based protein kinase assay; assay type: biochemical; details: Table 1; 10 μM ATP
Chain of CDK5/p25 (Q00535 whole entry): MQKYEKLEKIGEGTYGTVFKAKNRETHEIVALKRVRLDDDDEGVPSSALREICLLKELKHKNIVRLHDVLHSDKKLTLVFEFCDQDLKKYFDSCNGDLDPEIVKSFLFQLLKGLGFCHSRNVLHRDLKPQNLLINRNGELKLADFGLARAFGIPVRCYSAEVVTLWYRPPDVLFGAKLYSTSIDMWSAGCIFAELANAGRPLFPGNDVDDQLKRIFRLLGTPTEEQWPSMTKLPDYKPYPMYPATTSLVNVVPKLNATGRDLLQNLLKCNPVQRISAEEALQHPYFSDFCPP
Chain of CDK5/p25 (Q15078 99-307 partner limits assumed): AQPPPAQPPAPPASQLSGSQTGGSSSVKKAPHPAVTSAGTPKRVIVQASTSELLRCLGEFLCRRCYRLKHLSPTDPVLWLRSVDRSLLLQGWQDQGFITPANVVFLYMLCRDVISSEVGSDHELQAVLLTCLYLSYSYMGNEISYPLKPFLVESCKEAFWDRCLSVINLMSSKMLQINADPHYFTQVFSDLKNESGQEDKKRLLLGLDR
Procedure: as §3

CDK6/cyclin D1 = CDK6/cyclin D1 (Homo sapiens, UniProt Q00534); test: Radioisotope-based protein kinase assay; assay type: biochemical; details: 10 μM ATP, 3-fold dilution from 10 μM
Chain of CDK6/cyclin D1 (Q00534 whole entry): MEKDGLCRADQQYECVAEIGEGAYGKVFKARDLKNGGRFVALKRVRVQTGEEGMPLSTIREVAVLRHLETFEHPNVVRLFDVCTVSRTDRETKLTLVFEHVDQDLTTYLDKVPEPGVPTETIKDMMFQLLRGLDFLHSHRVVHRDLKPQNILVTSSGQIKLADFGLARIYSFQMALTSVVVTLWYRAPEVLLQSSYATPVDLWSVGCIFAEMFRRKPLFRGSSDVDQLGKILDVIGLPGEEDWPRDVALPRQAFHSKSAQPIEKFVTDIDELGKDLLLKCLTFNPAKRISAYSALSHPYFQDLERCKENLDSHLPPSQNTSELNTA
Chain of CDK6/cyclin D1 (P24385 whole entry partner): as the sequence (P24385 whole entry partner) above
Procedure: as §3

CDK7/cyclin H [7] = target: T5, CDK7/cyclin H; test: Radioisotope-based protein kinase assay; assay type: biochemical; details: 10 μM ATP, 3-fold dilution from 10 μM
Procedure: as §3

## Nc1nccc(-c2c[nH]c3nccc(Oc4cccc(F)c4)c23)n1 [I-3, 4-(4-(3-fluorophenoxy)-1H-pyrrolo[2,3-b]pyridin-3-yl)pyrimidin-2-amine]
CDK2/cyclin E [1]
  Binding of CDK2/Cyclin E in drug target engagement methods (CETSA, NanoBRET): potent binding (nanomolar range)
MDA-MB-231
  IC50: 565 nM
BT-549
  IC50: 765 nM
MDA-MB-468; MDA-MB-468 (Basal-like 1), 72 hours, read-out: CTG and Alamar Blue Assay IC50
  IC50: 276 nM
MDA-MB-468; MDA-MB-468, 72 hours, Table 6, read-out: Cell viability by CellTiter Glo IC50
  IC50: 276 nM
T47D
  IC50: 55500 nM
MCF-10A; MCF-10A (Normal breast-like), read-out: CTG and Alamar Blue Assay IC50
  IC50: 2070 nM
MCF-10A; MCF-10A, Table 6, read-out: Cell viability by CellTiter Glo IC50
  IC50: 2070 nM
CKD9/Cyclin H
  IC50: 7 nM
PLC/PRF/5 cells
  IC50: 1520 nM
CDK5/p35
  IC50: 8 nM
[2]
  Caspase 3/7 activation (comparison): greater activation of caspase 3/7 by 1-3 than by PF-06873600
[2]; Homo sapiens
  IC50: 2450 nM
CDK2/Cyclin E1
  IC50: 22 nM
CDK1/Cyclin B1
  IC50: 1070 nM
CDK9/cyclin T1 [3]
  IC50: 702 nM
CDK7/cyclin H [4]
  IC50: 403 nM
CDK4/cyclin D1
  IC50: 414 nM
CDK2/cyclin A
  IC50: 4 nM
CDK1/cyclin A
  IC50: 6 nM
CDK2/cyclin E [5]
  IC50: 4 nM
CDK9/cyclin T1 [6]
  IC50: 7 nM
CDK5/p25
  IC50: 8 nM
CDK6/cyclin D1
  IC50: 285 nM
CDK7/cyclin H [7]
  IC50: 18 nM
